Measurements published in paper PMC7464698, “Phenolic Composition and Skin-related Properties of the Aerial Parts Extract of Different Hemerocallis Cultivars” (Antioxidants, 2020).
In brackets after ≈: the same amount, converted by molar mass.

Tests used:
[1] = target: T1, Porcine pancreatic elastase (Sus scrofa, UniProt P00772); assay: N-Succinyl-Ala-Ala-Ala-p-nitroanilide hydrolysis, absorbance […] nm; type: biochemical; details: read-out: IC50 [μg/mL] / Elastase Inhibition (converted)
T1 construct: gene CELA1; commercial native enzyme from pancreas (Sigma-Aldrich); mature enzyme
T1 sequence (P00772 27-266): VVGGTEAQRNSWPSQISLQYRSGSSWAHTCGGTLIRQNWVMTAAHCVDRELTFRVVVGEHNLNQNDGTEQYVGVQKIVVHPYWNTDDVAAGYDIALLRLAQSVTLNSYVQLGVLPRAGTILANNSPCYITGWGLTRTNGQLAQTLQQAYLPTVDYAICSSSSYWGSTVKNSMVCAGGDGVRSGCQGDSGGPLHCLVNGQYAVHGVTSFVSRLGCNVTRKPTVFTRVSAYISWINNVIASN

[2] = target: T2, Collagenase from Clostridium histolyticum; assay: FALGPA hydrolysis, absorbance […] nm; type: biochemical, Hathewaya histolytica; details: FALGPA 1 mM; Tricine 0.05 M pH 7.5, 0.4 M NaCl, 0.01 M CaCl2; 29 °C; 10 min preincubation; positive control
T2 construct: gene colG; commercial native enzyme preparation (Sigma-Aldrich); mixture of ColG and ColH not resolved

With `O=C(O[C@@H]1Cc2c(O)cc(O)cc2O[C@@H]1c1cc(O)c(O)c(O)c1)c1cc(O)c(O)c(O)c1` [EGCG] the IC50 [1] was 136 µM and the “IC50 [μg/mL] / Collagenase Inhibition” value [2] was 34.9 ± 0.4 µg/mL (≈ 76.1 µM).
